Source: US20110020786A1, “PEPTIDE DENDRIMERS: AFFINITY REAGENTS FOR BINDING NOROVIRUSES” (BAYLOR COLLEGE OF MEDICINE, priority 2007, published 2011)
Ends that are not written are not given here.

Columns and labels:
immobilized NoVLPs = experiment: Surface plasmon resonance, dendrimer binding to immobilized NoVLPs (KD determination); design: species or system Norovirus; details: steady-state model fit of equilibrium average response, 8-240 μM dendrimer, HBS-P, 10 μL/min
Method: FIGS. 4A-4B are charts illustrating the concentration dependence of RHFQTHTVPLSL8 (the octovalent dendrimer of SEQ ID NO: 1) binding to immobilized NoVLPs. 1-8 μM; 2-32 μM; 3-64 μM; 4-96 μM; 5-160 μM; 6-240 μM; (FIG. 4A). Samples were prepared in the running buffer (HBS-P) and injected at a flowrate of 10 μL/min. The arrow indicates the end of the injection of the dendrimer (binding phase) which is followed by washing with running buffer (dissociation phase).
Peptide binding to VLPs was detected using a BIAcore 3000 instrument. VLPs were immobilized to a CM5 sensor chip using amine coupling at 5 μL/min in HBS buffer (10 mM HEPES containing 0.15 M NaCl and 0.005% surfactant P20, pH 7.4): the sensor chip surface was activated by a 10 min injection of a solution of 0.05 M NHS (N-hydroxysuccinimide) and 0.2 M EDC (N-ethyl-N′-dimethylaminopropylcarbodiimide) followed by a 5 min injection of VLPs (100 μg/mL) in 10 mM sodium acetate pH 4 and blocking of unreacted activated groups with a 7 min injection of ethanolamine. Final surface densities were typically around 9000 RU.

[1] = tested on: native genogroup II Norovirus from clinical samples; experiment: Native NoV capture and detection in clinical samples by ELISA; type: binding; details: dendrimer as capture reagent, stool samples GII #1-3, bound virus detected with NS14
Method: The capture reagent was RHFQTHTVPLSL8 (the octovalent dendrimer of SEQ ID NO: 1) (middle bars), or AHFQTHTVPLSL8 (the octovalent dendrimer of SEQ ID NO: 2) (right bars) and bound virus was detected with a MAb3912 (GI) or NS14 (GII). […] For comparison, detection of Norovirus from genogroup I samples (GI#1-3) was evaluated using a genogroup I specific antibody as the capture reagent (left bars). The potential of false positive signals was evaluated using clinical samples negative for Norovirus (negative #1-3) with anti-genogroup I antibody, RHFQTHTVPLSL8 (the octovalent dendrimer of SEQ ID NO: 1) and AHFQTHTVPLSL8 (the octovalent dendrimer of SEQ ID NO: 2) as capture reagents.
Capture and detection of native NoV from clinical samples was performed by ELISA. […] Captured NoV was detected with an anti-Norwalk virus antibody from rabbit (for genogroup I Norwalk detection) or NS14 (for genogroup II NoV detection) as the primary antibody followed by goat anti-rabbit-HRP or goat anti-mouse-HRP as the secondary antibody with detection at 405 nm using the HRP substrate ABTS.

## RHFQTHTVPLSL8 (also: octovalent dendrimer of the peptide)
Immobilized NoVLPs
  Kd: 117 µM
[1]
  capture of native genogroup II Norovirus from clinical samples: No genogroup II virus could be detected
